In PubChem BioAssay AID540338 (Southern Research Specialized Biocontainment Screening …, 2011):
Activity calls are given as the source filed them.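 The calls were made as follows: active = cell viability below 70% of untreated cell signal at any tested dose; inactive = the rest.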

Each compound was assayed on HEp-2 viability, luminescence (CellTiter-Glo) (assay: HEp-2 cell cytotoxicity, dose response, cytotoxicity control for RSV antiviral project, synthesized compounds, set 12 (AID 540338)).
With `COCCCNC(=O)c1ccc(Cn2c(=O)c3ccccc3n(CCc3ccc(C)cc3)c2=O)cc1` the CC50 was < 1.6 µM. Compound `COCCCNC(=O)c1ccc(Cn2c(=O)c3ccccc3n(CCc3ccc(C(F)(F)F)cc3)c2=O)cc1` has a CC50 of 116 µM. `COCCCNC(=O)c1ccc(Cn2c(=O)c3ccccc3n(Cc3ccccn3)c2=O)cc1` gave a CC50 of 16 µM. `COCCCNC(=O)c1ccc(Cn2c(=O)c3ccccc3n(Cc3cccnc3)c2=O)cc1` was tested, and the CC50 was 8 µM. `COCCCNC(=O)c1ccc(Cn2c(=O)c3ccccc3n(Cc3ccc(C)cc3)c2=O)cc1` gave a CC50 of 69 µM. With `COCCCNC(=O)c1ccc(Cn2c(=O)c3ccccc3n(CCc3ccc(Br)cc3)c2=O)cc1` the CC50 was < 1.6 µM. For `COCCCNC(=O)c1ccc(Cn2c(=O)c3ccccc3n(CC3CCCCC3)c2=O)cc1`, the CC50 was > 200 µM (inactive).
